Measured values reported in US8940291B2 (priority 2009, dated 2015).

System: VSVΔ51-resistant CT26 colon carcinoma tumors
Parameters: species or system Balb/c mice
Details: mouse, in vivo, ip

With `O=C1OC(c2ccccc2)C(Cl)=C1Cl` (centres unmarked) [VSe1, 3,4-dichloro-5-phenyl-2,5-dihydrofuran-2-one] the “tumor growth, compound alone” value was “neither VSe1 nor VSVΔ51 alone had a significant effect on tumor growth” and the “tumor progression, combination with VSVΔ51” value was “significant delay in tumor progression”.
